By IC50 is commonly meant the concentration that inhibits the measured activity by half.

The record followed here is patent US6506760B1, “Substituted hydrazinyl heteroaromatic inhibitors of thrombin” (Corvas International, Inc., priority 2000, dated 2003).

Format in all cases: biochemical
For one experiment, the target named is human α-thrombin (Homo sapiens, UniProt P00734). The experiment in a line: Thrombin (fIIa) chromogenic assay, IC50.
The next experiment deals with T1, Factor Xa (Homo sapiens, UniProt P00742).
T1 construct: purchased Enzyme Research Laboratories, Inc. (South Bend, Ind.)
T1 sequence (P00742 235-488 limits assumed): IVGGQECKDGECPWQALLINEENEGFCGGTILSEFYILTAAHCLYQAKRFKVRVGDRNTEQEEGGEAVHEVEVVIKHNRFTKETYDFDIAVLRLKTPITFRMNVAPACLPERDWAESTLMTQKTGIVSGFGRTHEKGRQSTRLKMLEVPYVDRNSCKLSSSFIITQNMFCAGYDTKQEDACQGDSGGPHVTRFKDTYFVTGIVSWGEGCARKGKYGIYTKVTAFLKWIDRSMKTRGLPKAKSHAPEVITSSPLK
T1 sequence (P00742 41-179 partner limits assumed): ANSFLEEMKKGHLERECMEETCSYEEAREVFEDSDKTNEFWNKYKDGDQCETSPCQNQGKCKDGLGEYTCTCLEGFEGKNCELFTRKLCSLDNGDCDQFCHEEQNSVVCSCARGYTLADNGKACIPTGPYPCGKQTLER
The experiment in a line: Factor Xa chromogenic assay, IC50. As to conditions: 30 min incubation; read-out: fxa IC50 (30 min). The protocol: (§1) The ability of compounds of the present invention to act as a selective inhibitor of thrombin activity was assessed by determining the concentration of test-compound which inhibited the activity of this enzyme by 50%, (IC50), and comparing this value to that determined for all or some of the following related serine proteases: recombinant tissue plasminogen activator (rt-PA), plasmin, activated protein C, chymotrypsin, factor Xa and trypsin.
(§2) The buffer used for all assays was HBSA (10 mM HEPES, pH 7.5, 150 mM sodium chloride, 0.1% bovine serum albumin).
(§3) The assay for IC50 determinations was conducted by combining in appropriate wells of a Corning microtiter plate, 50 microliters of HBSA, 50 microliters of the test compound at a specified concentration (covering a broad concentration range) diluted in HBSA (or HBSA alone for V0 (uninhibited velocity) measurement), and 50 microliters of the enzyme diluted in HBSA. Following a 30 minute incubation at ambient temperature, 50 microliters of the substrate at the concentrations specified below were added to the wells, yielding a final total volume of 200 microliters. The initial velocity of chromogenic substrate hydrolysis was measured by the change in absorbance at 405 nm using a Thermo Max® Kinetic Microplate Reader over a 5 minute period in which less than 5% of the added substrate was utilized. The concentration of added inhibitor which caused a 50% decrease in the initial rate of hydrolysis was defined as the IC50 value.
Factor Xa catalytic activity was determined using the chromogenic substrate S-2765 (N-benzyloxycarbonyl-D-arginine-L-glycine-L-arginine-p-n itroaniline ), obtained from DiaPharma Group (Franklin, Ohio). All substrates were reconstituted in deionized water prior to use. […] Purified human Factor X was obtained from Enzyme Research Laboratories, Inc. (South Bend, Ind.) and Factor Xa (FXa) was activated and prepared from it as described [Bock, P. E., Craig, P. A., Olson, S. T., and Singh, P. Arch, Biochem. Biophys, 273:375-388 (1989)]. The enzyme was diluted into HBSA prior to assay in which the final concentration was 0.25 nM.

A further experiment deals with human plasmin (Homo sapiens, UniProt P00747). The experiment in a line: Plasmin chromogenic assay, IC50. As to conditions: 30 min incubation. The procedure: as §1, §2, §3
Sequence of human plasmin (P00747 581-810 limits assumed): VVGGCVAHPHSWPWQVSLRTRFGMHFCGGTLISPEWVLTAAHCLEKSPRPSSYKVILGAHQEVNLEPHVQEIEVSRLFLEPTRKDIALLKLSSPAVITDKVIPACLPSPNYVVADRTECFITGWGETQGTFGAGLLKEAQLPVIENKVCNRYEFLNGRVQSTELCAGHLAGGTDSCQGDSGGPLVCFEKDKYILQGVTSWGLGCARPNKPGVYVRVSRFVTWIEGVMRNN
Sequence of human plasmin (P00747 97-580 partner limits assumed): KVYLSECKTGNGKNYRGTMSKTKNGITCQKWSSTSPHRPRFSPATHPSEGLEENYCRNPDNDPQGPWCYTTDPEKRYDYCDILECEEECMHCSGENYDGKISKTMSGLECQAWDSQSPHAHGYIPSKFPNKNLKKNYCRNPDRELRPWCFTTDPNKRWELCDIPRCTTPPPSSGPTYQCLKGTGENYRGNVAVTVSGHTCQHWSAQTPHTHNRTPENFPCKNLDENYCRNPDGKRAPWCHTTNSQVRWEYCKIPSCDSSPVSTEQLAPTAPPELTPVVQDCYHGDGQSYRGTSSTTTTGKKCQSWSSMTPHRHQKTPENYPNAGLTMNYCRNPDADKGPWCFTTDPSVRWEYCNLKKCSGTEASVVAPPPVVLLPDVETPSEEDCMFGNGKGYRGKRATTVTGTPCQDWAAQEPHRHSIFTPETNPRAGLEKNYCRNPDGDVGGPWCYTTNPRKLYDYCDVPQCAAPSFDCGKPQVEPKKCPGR
Plasmin catalytic activity was determined using the chromogenic substrate, S-2366 [L-pyroglutamyl-L-prolyl-L-arginine-p-nitroaniline hydrochloride], which was obtained from DiaPharma group. The substrate was made up in deionized water followed by dilution in HBSA prior to the assay in which the final concentration was 300 micromolar (about 2.5-times Km). Purified human plasmin was obtained from Enzyme Research Laboratories, Inc. The enzyme was diluted into HBSA prior to assay in which the final concentration was 1.0 nM.

Experiment [1] addresses T2, bovine pancreatic trypsin (Bos taurus, UniProt P00760).
T2 construct: bovine pancreatic trypsin was obtained from Worthington Biochemical Corp; purchased Worthington Biochemical Corp. TRL3; host or cells: bovine pancreas
T2 sequence (P00760 24-246): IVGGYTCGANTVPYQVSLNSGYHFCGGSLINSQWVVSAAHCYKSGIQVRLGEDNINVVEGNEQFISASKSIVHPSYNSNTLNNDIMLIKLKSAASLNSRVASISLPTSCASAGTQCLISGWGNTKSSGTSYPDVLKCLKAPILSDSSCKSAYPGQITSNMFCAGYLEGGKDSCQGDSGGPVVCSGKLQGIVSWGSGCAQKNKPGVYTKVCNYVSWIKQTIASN
The experiment in a line: Trypsin chromogenic assay, IC50. As to conditions: 30 min incubation. The protocol:
as §1, §2, §3
Trypsin catalytic activity was determined using the chromogenic substrate, S-2222 (benzoyl-L-isoleucine-L-glutamic acid-[gamma-methyl ester]-L-arginine-p-nitroanilide), which was obtained from DiaPharma Group. […] Purified (3×-crystallized; TRL3) bovine pancreatic trypsin was obtained from Worthington Biochemical Corp. The enzyme was reconstituted in deionized water and diluted into HBSA prior to assay in which the final concentration was 0.5 nM.

[2] abbreviates: 0 min incubation of enzyme with inhibitor, read-out: fIIa IC50 (0 min).
Setting [3] is: 30 min incubation of enzyme with inhibitor, read-out: fIIa IC50 (30 min).

Where two headings read alike, the source gives them in different places.

On to `Cc1nc(N)ccc1CNC(=O)Cn1c(C)cnc(NNS(=O)(=O)c2ccccc2F)c1=O` [Example 54, 1-[5-(2-Amino-6-methylpyridyl)methylcarboxamidomethyl]-3-[2-(2-fluorobenzenesulfonyl)hydrazino]-6-methyl pyrazinone, Hydrotrifluoroacetate], for which the IC50 at human α-thrombin (setting [2]) is at most 0.1 µM; on human α-thrombin (setting [3]), at most 0.1 µM; at Factor Xa it was at least 100 µM; at human plasmin it was at least 100 µM; in experiment [1] it was at least 100 µM.
In the case of `COc1ccc(S(=O)(=O)NNc2ncc(C)n(CC(=O)NCc3ccc(N)nc3C)c2=O)cc1` [Example 57], the IC50 on human α-thrombin (setting [2]) is at most 0.1 µM; on human α-thrombin (setting [3]) it was at most 0.1 µM; on Factor Xa, 2.5 to 100 µM; against human plasmin, at least 100 µM; in experiment [1], at least 100 µM.
Consider `C#CCOC(=O)N(CC)Nc1ncc(C)n(CC(=O)NCc2ccc(N)nc2C)c1=O` [Example 58, 1-[5-(2-Amino-6-methylpyridyl)methylcarboxamidomeyhyl-]3-[2-ethyl-2-(propargyloxycarbonyl)hydrazino]-6-methylpyrazinone, Hydrotrifluoroacetate], for which the IC50 was at most 0.1 µM on human α-thrombin (setting [2]); at most 0.1 µM on human α-thrombin (setting [3]); at least 100 µM on Factor Xa; at least 100 µM against human plasmin; at least 100 µM in experiment [1].
On to `C#CCOC(=O)N(C)Nc1ncc(C)n(CC(=O)NCc2ccc(N)nc2C)c1=O` [Example 59, 1-[5-(2-Amino-6-methylpyridyl)methylcarboxamidomethyl]-6-methyl-3-[2-methyl-2-(propargyloxycarbonyl)hydrazino]pyrazinone, Hydrotrifluoroacetate], for which the IC50 on human α-thrombin (setting [2]) is at most 0.1 µM; at human α-thrombin (setting [3]), at most 0.1 µM; on Factor Xa, at least 100 µM; against human plasmin it was at least 100 µM; in experiment [1], 2.5 to 100 µM.
Consider `Cc1nc(N)ccc1CNC(=O)Cn1c(C)cnc(NN(CCc2ccccc2)CCc2ccccc2)c1=O` [Example 60, 1-[5-(2-Amino-6-methylpyridyl)methylcarboxamidomethyl]-6-methyl-3-[2,2-di(2-phenylethyl)hydrazino]pyrazinone, Hydrotrifluoroacetate], for which the IC50 at human α-thrombin (setting [2]) was at most 0.1 µM; on human α-thrombin (setting [3]), at most 0.1 µM; on Factor Xa it was 2.5 to 100 µM; on human plasmin it was at least 100 µM; in experiment [1], at least 100 µM.
